Measurements reported in patent US12343404B2, “Ligand-targeted cell conjugate (LTCC)-based anti-tumor immune cell” (priority 2020, dated 2025).

System: NK92-MI cells
Experiment: Influence of azido sugar on NK cell activity (CCK8, OD450)
Type: cell-based
Settings: final concentration 50 μM; 24 hours and 48 hours; vs 0.1% DMSO control
Protocol: This embodiment describes validation of influences of the added non-natural sugars on cell activities. The specific method is as follows: non-natural sugars were absorbed by cells; the cells were cultured for a period of time; then, OD450 was determined using a cell counting kit 8 (CCK8) (Beyotime), and a difference in cell activities of a group added with sugars and a group without sugars was analyzed.
The specific process is as follows: 1×10^5 pieces of NK cells were laid in a 96-pore plates; 0.1% DMSO was added into a control group, while Ac4ManNAz with a final concentration of 50 μM (the mount of the DMSO was equivalent to 0.1%) was added into an experimental group; then, the cells were cultured in an incubator at 37° C., and subsequently added with the CCK8 after 24 hours and 48 hours respectively; and after 2-hour incubation, OD450 was detected using a microplate reader.

With CC(=O)OC[C@H]1OC(OC(C)=O)[C@@H](NC(=O)CN=[N+]=[N-])[C@@H](OC(C)=O)[C@@H]1OC(C)=O (stereo partly shown) [Ac4ManNAz, N-azidoacetylmannosamine-tetraacylated] the “influence on cell activities (OD450, CCK8)” value was “not toxic to cells, but slightly promoted growth”.
